Test results published in patent US9199983B2, “3-aryl-6-aryl-[1,2,4]triazolo[4,3-α]pyridines as inhibitors of cell proliferation and the use thereof” (priority 2010, dated 2015).

Key:
[1] = system: breast cancer cell line T47D; experiment: MTT cancer cell cytotoxicity assay, T47D; format: cell-based, human; conditions: Homo sapiens, T47D cells, 48-72 h
Method in brief: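 Human T47D breast cancer cells, cultured per ATCC recommendations with 10% fetal bovine serum and penicillin/streptomycin, were plated at 3000 cells/well in 96-well plates. After overnight attachment they were exposed in triplicate to compounds (10 μM to 1 nM) for 48-72 h. MTT was then added for 4 h and the formazan dissolved in DMSO. Absorbance at 550 nm minus 660 nm was fitted in Prism 5 to give IC50.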

[2] = system: caspase-3 activation; experiment: Caspase-3 activation (apoptosis induction) in T-47D cells; format: cell-based; conditions: Homo sapiens; T47D cells, 24 h treatment; read-out: EC50 to induce caspase-3 activation, T47D
Protocol: (§1) Identification of 3-(2-methoxyphenyl)-6-(4-methoxyphenyl)-[1,2,4]triazolo[4,3-a]pyridine and analogs as inducers of apoptosis in solid tumor cells
(§2) Human breast cancer cell line T-47D and lung cancer cell line A549, growing in DMEM/F12+10% FBS media were seeded to a density of 20000 cells/well in 96-well cell culture plate and grew overnight (18-24 h) in CO2 cell culture incubator at 37° C. Next day the medium were removed by aspiration and […] fresh growth media was added to each well followed by […] of growth media containing 10× concentration of reference or testing compounds with 10% DMSO. Twenty four hours later, cell culture plates were centrifuged at 1000 g for 5 min and the supernatant was removed by emptying contents into a reservoir. Fifty μl of Lysis Buffer (10 mM Tris, pH7.5, 0.1M NaCl, 1 Mm EDTA, 0.01% Triton X-100) was added to each well and the plates were incubated with gentle agitation on an orbital shaker at 4° C. for 30 min. The plates were then centrifuged at 1000 g for 10 min at 4° C. and 20 μl of the supernatant was transferred from each well to a corresponding well in a black 384-well. Twenty μl of caspase-3 assay buffer (20 mM PIPES, pH7.4, 4 Mm EDTA and 0.2% CHAPS) containing 20 μM fluorogenic caspase-3 substrate ((Ac-DEVD)2-R110, AnaSpec Cat #60304-5) was added to each well. The samples were mixed by agitation and incubated at 37° C. for 3 h. The fluorescent intensity of each well was read on a fluorescent plate reader (Varioskan Flash, Thermo Fisher Scientific) with excitation wavelength at 496 nm and emission wavelength at 520 nm. The activity of compounds on caspase-3 activation was determined by plotting the relative fluorescent unit (RFU) against the testing concentrations of the compounds. The EC50 values were determined by fitting the above responding curves into Prism sigmoidal dose-response equation (GraphPad Software, Inc).

[3] = system: liver cancer cell line SMMC7721; experiment: MTT cancer cell cytotoxicity assay, SMMC7721; format: cell-based, human; conditions: Homo sapiens, SMMC-7721, SMMC7721 cells, 48-72 h
Method in brief: (§3)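 Seeding: HepG2 and A549 at 3000, SMMC7721 at 5000, B16F10 at 2000 cells/well, attached overnight. Compounds (10 μM to 1 nM, triplicate) were applied for 48-72 h at 37 °C, followed by 4 h MTT. A550 minus A660 was fitted for IC50, with untreated wells as maximum and reference-drug total kill as background.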

[4] = system: caspase-3 activation; experiment: Caspase-3 activation (apoptosis induction) in A549 cells; format: cell-based; conditions: Homo sapiens, A-549 cells, 24 h treatment, read-out: EC50 to induce caspase-3 activation, A-549
Protocol: as §1, §2

[5] = system: Human lung cancer cell line A549; experiment: MTT cancer cell cytotoxicity assay, A549; format: cell-based; conditions: Homo sapiens, A549 cells, 48-72 h
Method in brief: as §3

[6] = system: liver cancer cell line HepG2; experiment: MTT cancer cell cytotoxicity assay, HepG2; format: cell-based, human; conditions: Homo sapiens, HepG2 cells, 48-72 h
Method in brief: as §3

[7] = system: mouse melanoma cell line B16F10; experiment: MTT cancer cell cytotoxicity assay, B16F10; format: cell-based; conditions: Mus musculus, B16-F10, B16F10 cells, 48-72 h
Protocol: Identification of 3-(2-methoxyphenyl)-6-(4-methoxyphenyl)-[1,2,4]triazolo[4,3-a]pyridine and analogs as inhibitors of cell proliferation that were evaluated with standard MTT cancer cell cytotoxicity assay (IC50)
Human lung cancer cell line A549, breast cancer cell line T47D, liver cancer cell lines HepG2 and SMMC7721 as well as a mouse melanoma cell line B16F10 were used in the study. The cells were cultured in corresponding growth media recommended by American Type Culture Collection (ATCC) with the supplementation of penicillin G (100 U/ml)/streptomycin (100 µg/ml), and 10% fetal bovine serum (Hangzhou Sijiqing Biological Engineering Materials, Co., Ltd. China) at 37° C. in a humidified atmosphere containing 5% CO2. Cells at about 80% confluency were harvested by trypsinization. Cells were centrifuged, re-suspended in fresh growth media and counted. Corresponding numbers of cells were seeded to 96-well cell culture plates (HepG2 cell, T-47D and A549 cells at 3000 cells/well, SMMC-7721 cells at 5000 cells/well and B16F10 cells at 2000 cells/well) in a total volume of […]. Cells were incubated in CO2 incubator over night to allow the cells to attach. In next day, […] of medium containing testing (from 10 μM to 1 nM) or reference compounds was added to each well of the cells. Media without compound were used as 100% control. Cells were treated with each concentration of compounds in triplicates to ensure data accuracy. Cells were incubated with compounds in CO2 incubator for an additional 48-72 h at 37° C. After incubation, cells were removed from the CO2 incubator and […] of 5 mg/ml MTT (3-(4,5-dimethylthiazole-2-yl)-2,5-diphenyltetrazoliumbromide, Sigma) solution in PBS was added to each well. Cells were returned to CO2 incubator and incubated for additional 4 h. After the incubation, media were removed by aspiration and […] DMSO was added to each well. Plates were sealed with aluminum foil and shaked mildly on an orbital shaker for 10 min at room temperature. The absorption was measured at 550 nm with a plate reader (Varioskan Flash, Thermo Fisher Scientific) with 660 nm reading used as background control. The relative absorbance readings were calculated by subtracting readings at 660 nm from that at 550 nm. The relative absorbance was plotted again the concentrations of the testing compounds and the plots were fitted with a one-site lg(IC50) equation using Prism 5 software (GraphPad Software, Inc). The equation used in the curve fitting is as follows: relative absorbance reading=background reading+(maximal reading−brackground reading)/(1+10 ^(compound concentration-log IC50)). The background reading used in the calculation was obtained with 100% cell death using a reference anticancer drug, whereas the maximal reading was obtained in the well with no added compound. The IC50 value calculated from the equation represents the cytotoxic potency of a particular compound.

Structure (SMILES): COc1ccc(-c2ccc3nnc(-c4ccccc4OC)n3c2)cc1C [Example 5, 6-(4-Methoxy-3-methylphenyl)-3-(2-methoxyphenyl)-[1,2,4]triazolo[4,3-a]pyridine]
- IC50 [1]: 0.04 µM
- EC50 [2]: 0.076 µM
- IC50 [3]: 0.011 µM
- EC50 [4]: 0.093 µM
- IC50 [5]: 0.011 µM
- IC50 [6]: 0.032 µM
- IC50 [7]: 0.037 µM
